Measurements from PubChem BioAssay AID1963839 (Molecular Pharmacology Branch, DTP, NCI, 2024).

Tested on: 817829-284-R-J1-PDC complex spheroid viability
Assay: Anticancer human tumor 817829-284-R-J1-PDC patient-derived colon adenocarcinoma cell line growth inhibition [POLQ]
Conditions: for IC50: curve of first compound; for viability, T/C: stronger effect = lower value; active = viability on the fitted dose curve at most 10% of control; inactive = the rest
In short: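 Patient-derived tumour cells were co-cultured with HUVEC and mesenchymal stem cells as multicellular spheroids at 37 °C. They were treated with POLQ inhibitors (novobiocin, ART-558, RP6685) alone or combined with other agents. Top concentrations were at or near clinical Cmax (otherwise 10 microM; SN-38 at 1 microM), decreasing in half-log steps.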

[1] = second compound 0.0316 µM, first compound 0.0316 µM
[2] = second compound 0.0316 µM, first compound 0.1 µM
[3] = second compound 0.0316 µM, first compound 0.316 µM
[4] = second compound 0.0316 µM, first compound 1 µM
[5] = second compound 0.0316 µM, first compound 3.16 µM
[6] = second compound 0.0316 µM, first compound 10 µM
[7] = second compound 0.1 µM, first compound 0.0316 µM
[8] = second compound 0.1 µM, first compound 0.1 µM
[9] = second compound 0.1 µM, first compound 0.316 µM
[10] = second compound 0.1 µM, first compound 1 µM
[11] = second compound 0.1 µM, first compound 3.16 µM
[12] = second compound 0.1 µM, first compound 10 µM
[13] = second compound 0.316 µM, first compound 0.0316 µM
[14] = second compound 0.316 µM, first compound 0.1 µM
[15] = second compound 0.316 µM, first compound 0.316 µM
[16] = second compound 0.316 µM, first compound 1 µM
[17] = second compound 0.316 µM, first compound 3.16 µM
[18] = second compound 0.316 µM, first compound 10 µM
[19] = second compound 1 µM, first compound 0.0316 µM
[20] = second compound 1 µM, first compound 0.1 µM
[21] = second compound 1 µM, first compound 0.316 µM
[22] = second compound 1 µM, first compound 1 µM
[23] = second compound 1 µM, first compound 3.16 µM
[24] = second compound 1 µM, first compound 10 µM
[25] = second compound 3.16 µM, first compound 0.0316 µM
[26] = second compound 3.16 µM, first compound 0.1 µM
[27] = second compound 3.16 µM, first compound 0.316 µM
[28] = second compound 3.16 µM, first compound 1 µM
[29] = second compound 3.16 µM, first compound 3.16 µM
[30] = second compound 3.16 µM, first compound 10 µM
[31] = second compound 10 µM, first compound 0.0316 µM
[32] = second compound 10 µM, first compound 0.1 µM
[33] = second compound 10 µM, first compound 0.316 µM
[34] = second compound 10 µM, first compound 1 µM
[35] = second compound 10 µM, first compound 3.16 µM
[36] = second compound 10 µM, first compound 10 µM
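Also: spheroids exposed to compounds for 7 days.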
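For viability, T/C in this document: 100% = DMSO vehicle-treated spheroids.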

C#Cc1c(F)ccc2cc(O)cc(-c3ncc4c(N5CC6CCC(C5)N6)nc(OCC56CCCN5CC(F)C6)nc4c3F)c12 (stereo not given) + COC1C(OC(N)=O)C(O)C(Oc2ccc3c(O)c(NC(=O)c4ccc(O)c(CC=C(C)C)c4)c(=O)oc3c2C)OC1(C)C
8.11 µM: IC50 (second compound 10 µM)
> 10 µM: IC50 (second compound 0.0316 µM) | IC50 (second compound 0.1 µM) | IC50 (second compound 0.316 µM) | IC50 (second compound 3.16 µM)
inactive: viability, T/C [1] 88.1% | viability, T/C [2] 92.5% | viability, T/C [3] 135% | viability, T/C [4] 119% | viability, T/C [5] 102% | viability, T/C [6] 93.4% | viability, T/C [7] 95.6% | viability, T/C [8] 107% | viability, T/C [9] 102% | viability, T/C [10] 114% | viability, T/C [11] 89.2% | viability, T/C [12] 106% | viability, T/C [13] 88.1% | viability, T/C [14] 105% | viability, T/C [15] 87.5% | viability, T/C [16] 116% | viability, T/C [17] 127% | viability, T/C [18] 66.5% | viability, T/C [19] 110% | viability, T/C [20] 140% | viability, T/C [21] 109% | viability, T/C [22] 126% | viability, T/C [23] 101% | viability, T/C [24] 36.5% | viability, T/C [25] 117% | viability, T/C [26] 121% | viability, T/C [27] 99.1% | viability, T/C [28] 113% | viability, T/C [29] 113% | viability, T/C [30] 56.7% | viability, T/C [31] 87.3% | viability, T/C [32] 113% | viability, T/C [33] 144% | viability, T/C [34] 101% | viability, T/C [35] 132% | viability, T/C [36] 35.4%
7.86 µM: IC50 (second compound 1 µM)

CC(C)n1c(=O)n(C)c2cnc3cc(F)c(-c4ccc(OCCCN5CCCCC5)nc4)cc3c21 + COC1C(OC(N)=O)C(O)C(Oc2ccc3c(O)c(NC(=O)c4ccc(O)c(CC=C(C)C)c4)c(=O)oc3c2C)OC1(C)C
5.05 µM: IC50 (second compound 10 µM)
4.94 µM: IC50 (second compound 1 µM)
> 10 µM: IC50 (second compound 0.0316 µM) | IC50 (second compound 0.316 µM)
4.97 µM: IC50 (second compound 3.16 µM)
7.06 µM: IC50 (second compound 0.1 µM)
inactive: viability, T/C [1] 88.5% | viability, T/C [2] 95.9% | viability, T/C [3] 61.4% | viability, T/C [4] 93.1% | viability, T/C [5] 84.5% | viability, T/C [6] 52.6% | viability, T/C [7] 74.4% | viability, T/C [8] 82.5% | viability, T/C [9] 129% | viability, T/C [10] 102% | viability, T/C [11] 72.7% | viability, T/C [12] 40.2% | viability, T/C [13] 78.5% | viability, T/C [14] 96.5% | viability, T/C [15] 86.3% | viability, T/C [16] 93% | viability, T/C [17] 71.4% | viability, T/C [18] 55.8% | viability, T/C [19] 102% | viability, T/C [20] 102% | viability, T/C [21] 84% | viability, T/C [22] 81.1% | viability, T/C [23] 62.5% | viability, T/C [24] 31.8% | viability, T/C [25] 81.9% | viability, T/C [26] 87.8% | viability, T/C [27] 78.6% | viability, T/C [28] 85.8% | viability, T/C [29] 71.3% | viability, T/C [30] 16.9% | viability, T/C [31] 80.5% | viability, T/C [32] 65.4% | viability, T/C [33] 62.1% | viability, T/C [34] 81.4% | viability, T/C [35] 74.4% | viability, T/C [36] 16.9%

CCc1cc2c(N3CCc4c(cc(Cn5ccnc5)cc4-c4cn(C)nc4C(F)(F)F)C3=O)cc(C)nc2c(OC)n1 + COC1C(OC(N)=O)C(O)C(Oc2ccc3c(O)c(NC(=O)c4ccc(O)c(CC=C(C)C)c4)c(=O)oc3c2C)OC1(C)C
1.95 µM: IC50 (second compound 0.316 µM)
1.72 µM: IC50 (second compound 0.1 µM)
2.3 µM: IC50 (second compound 10 µM)
3.1 µM: IC50 (second compound 0.0316 µM)
1.4 µM: IC50 (second compound 1 µM)
inactive: viability, T/C [1] 82.7% | viability, T/C [2] 82.2% | viability, T/C [3] 77.6% | viability, T/C [4] 61.9% | viability, T/C [5] 51.9% | viability, T/C [6] 27.7% | viability, T/C [7] 115% | viability, T/C [8] 86.8% | viability, T/C [9] 68.5% | viability, T/C [10] 55.6% | viability, T/C [11] 47.9% | viability, T/C [12] 34.2% | viability, T/C [13] 76.8% | viability, T/C [14] 81.9% | viability, T/C [15] 68.4% | viability, T/C [16] 61.7% | viability, T/C [17] 41.7% | viability, T/C [18] 35.8% | viability, T/C [19] 95.6% | viability, T/C [20] 86.8% | viability, T/C [21] 78% | viability, T/C [22] 52% | viability, T/C [23] 41.9% | viability, T/C [24] 34.7% | viability, T/C [25] 87.5% | viability, T/C [26] 74.2% | viability, T/C [27] 75.3% | viability, T/C [28] 58.1% | viability, T/C [29] 58.3% | viability, T/C [30] 31.4% | viability, T/C [31] 81.2% | viability, T/C [32] 85.3% | viability, T/C [33] 82.6% | viability, T/C [34] 65.6% | viability, T/C [35] 44.5% | viability, T/C [36] 31.7%
3.38 µM: IC50 (second compound 3.16 µM)

CCc1cc2c(N3CCc4c(cc(Cn5ccnc5)cc4-c4cn(C)nc4C(F)(F)F)C3=O)ccnc2c(OC)n1 + COC1C(OC(N)=O)C(O)C(Oc2ccc3c(O)c(NC(=O)c4ccc(O)c(CC=C(C)C)c4)c(=O)oc3c2C)OC1(C)C
inactive: viability, T/C [1] 79% | viability, T/C [2] 80.2% | viability, T/C [3] 84.7% | viability, T/C [4] 70% | viability, T/C [5] 49% | viability, T/C [6] 32.2% | viability, T/C [7] 90.3% | viability, T/C [8] 94% | viability, T/C [9] 83.2% | viability, T/C [10] 70.3% | viability, T/C [11] 51.6% | viability, T/C [12] 29.7% | viability, T/C [13] 82.8% | viability, T/C [14] 98.2% | viability, T/C [15] 77.7% | viability, T/C [16] 97.5% | viability, T/C [17] 57.8% | viability, T/C [18] 39.5% | viability, T/C [19] 95.7% | viability, T/C [20] 73% | viability, T/C [21] 97.3% | viability, T/C [22] 53.3% | viability, T/C [23] 54.9% | viability, T/C [24] 35.2% | viability, T/C [25] 72.8% | viability, T/C [26] 83.7% | viability, T/C [27] 89.4% | viability, T/C [28] 68.3% | viability, T/C [29] 63.7% | viability, T/C [30] 44.2% | viability, T/C [31] 104% | viability, T/C [32] 82.2% | viability, T/C [33] 75.2% | viability, T/C [34] 75.2% | viability, T/C [35] 57% | viability, T/C [36] 35.2%
1.58 µM: IC50 (second compound 1 µM)
2.92 µM: IC50 (second compound 0.0316 µM)
4.32 µM: IC50 (second compound 10 µM)
3.3 µM: IC50 (second compound 0.1 µM)
5.17 µM: IC50 (second compound 0.316 µM)
6.94 µM: IC50 (second compound 3.16 µM)

COc1cc2cc(C(=O)CCC(=O)O)sc2cc1OC + COC1C(OC(N)=O)C(O)C(Oc2ccc3c(O)c(NC(=O)c4ccc(O)c(CC=C(C)C)c4)c(=O)oc3c2C)OC1(C)C
> 10 µM: IC50 (second compound 0.0316 µM) | IC50 (second compound 0.1 µM) | IC50 (second compound 0.316 µM) | IC50 (second compound 1 µM) | IC50 (second compound 3.16 µM) | IC50 (second compound 10 µM)
inactive: viability, T/C [1] 81.3% | viability, T/C [2] 96.4% | viability, T/C [3] 83.3% | viability, T/C [4] 85.8% | viability, T/C [5] 94.6% | viability, T/C [6] 85.6% | viability, T/C [7] 97.8% | viability, T/C [8] 104% | viability, T/C [9] 89.7% | viability, T/C [10] 98.2% | viability, T/C [11] 49.2% | viability, T/C [12] 102% | viability, T/C [13] 75.7% | viability, T/C [14] 94.6% | viability, T/C [15] 88.9% | viability, T/C [16] 94.6% | viability, T/C [17] 112% | viability, T/C [18] 66.7% | viability, T/C [19] 88.2% | viability, T/C [20] 109% | viability, T/C [21] 71.1% | viability, T/C [22] 105% | viability, T/C [23] 83.9% | viability, T/C [24] 86.1% | viability, T/C [25] 85.5% | viability, T/C [26] 108% | viability, T/C [27] 98.7% | viability, T/C [28] 99.5% | viability, T/C [29] 110% | viability, T/C [30] 61.3% | viability, T/C [31] 106% | viability, T/C [32] 71.2% | viability, T/C [33] 90.9% | viability, T/C [34] 80.8% | viability, T/C [35] 117% | viability, T/C [36] 74.1%
